# Assay results as given in US20130260458A1, “METHOD OF INDUCING DIFFERENTIATION OF HUMAN PLURIPOTENT STEM CELL INTO HEPATIC PROGENITOR CELL” (NATIONAL UNIVERSITY CORPORATION CHIBA UNIVERSITY, priority 2012, published 2013).
# Columns and labels:
# Human iPS cells (201B7) [1] = assay: Induction of differentiation into hepatic progenitor cells by growth-promoting agents (real-time quantitative PCR of AFP and DLK-1); type: cell-based; conditions: iPS cells transfected with FOXA2, GATA4, HEX, C/EBPα three times every three days, 8th day, n=3, ± standard error, ReproFF lane = 100; for α-fetoprotein/RPL19 ratio (mRNA expression): FIG. 3-1; for DLK-1/RPL19 ratio (mRNA expression): FIG. 3-2
# Description: Human iPS cells (201B7, RIKEN cell bank) were seeded onto a matrigel-coated 6-well plate, and cultured in a medium, ReproFF in accordance with a conventional method under the following conditions: 37° C. and 5% carbon dioxide. A lipofection reagent, Lipofectamine LTX (registered trade mark, Life Technologies Japan Ltd.) was used to transfect 0.5 μg of expression plasmids of FOXA2, GATA4, HEX and C/EBPα, respectively.
# As the expression vectors of the transcription factors, used were expression vectors (human TrueClone, OriGene Technologies, Inc., COSMO BIO co., ltd.) in which full-length cDNAs of human FOXA2, GATA4, HEX and CEBPA were each incorporated in the downstream of a potent-promoting agent derived from cytomegalovirus. In the human FOXA2 expression vector (catalog No. sc122913), the full-length cDNA coding human FoxA2 protein was inserted between EcoR1 and Sal1 restricted sites of pCMV6-XL5. In the human GATA4 expression vector (catalog No. sc124037), the full-length cDNA coding human GATA4 protein was inserted between EcoR1 and Sal1 restricted sites of pCMV6-XL4. In the human HEX expression vector (catalog No. sc321626), the full-length cDNA coding human HHEX protein was inserted between Sgf1 and Mlu1 restricted sites of pCMV6-AC. In the human CEBPA expression vector (catalog No. sc303472), the full-length cDNA coding human CEBPA protein was inserted between EcoR1 and Sal1 restricted sites of pCMV6-XL5.
# Immediately before transfection, the medium to be used was changed to a medium obtained by adding oncostatin M (Wako Pure Chemical Industries, Ltd.), EGF (Wako Pure Chemical Industries, Ltd.) and retinoic acid (Wako Pure Chemical Industries, Ltd.) to the iPSm(−) medium. Here, the iPSm(−) medium corresponds to a medium obtained by eliminating a basic fibroblast growth factor from a medium for feeder cells of human iPS cells recommended by CiRA at Kyoto University. […]
# The transfection of the transcription factors was repeated three times every three days, and, on the 8th day, RNA was extracted using Isogen (NIPPON GENE CO., LTD.). […] Then, the amount of expressed α-fetoprotein (AFP), which was an indicator of hepatic progenitor cells, was analyzed by the real-time quantitative PCR method using a real-time PCR analysis reagent, Fast SYBR Green Master Mix (trade name, Life Technologies Japan Ltd.). […] The amounts of α-fetoprotein (AFP) and Delta-like (DLK)-1 expressed were quantitatively determined as an indicator of hepatic progenitor cells by employing ribosome-related protein (RLP19) as internal standard (each group, n=3).
# The real-time quantitative PCR was performed by using the following primers through a PCR cycle including 30 cycles of 5 seconds at 95° C. and 20 seconds at 60° C.
# Human iPS cells (201B7) [2] = assay: Expression of transcription factors in iPS cells cultured with single growth-promoting agents (RT-PCR, electrophoresis); type: cell-based; conditions: iPS cells in iPSm(−) medium with the growth-promoting agent added; PCR and electrophoresis, FIG. 2
# Description: Reverse transcriptase (Life Technologies Japan Ltd.) was used to synthesize cDNAs of iPS cells, fetal hepatic cells and adult hepatic cells from 3 μg of RNA. The cDNAs were subjected to polymerase chain reaction (PCR) using the following primers to GATA4, FOXA2, HEX, C/EBPα and C/EBPβ, respectively, and to electrophoresis using 2% low-melting agarose (Lonza) and 1×TAE, for investigations on the expression of GATA4, FOXA2, HEX, C/EBPα and C/EBNβ in the iPS cells, fetal hepatic cells and adult hepatic cells.
# After electrophoresis, the 2% low-melting agarose was irradiated with ultraviolet rays at 254 nm from a UV transilluminator (UVP LLC, NLMS-20E), and a Polaroid photograph (FUJIFILM Corporation, FP-3000B) thereof was taken with a gel camera (Funakoshi DS-300) to analyze an electrophoretic pattern.
# PCR cycles performed included 30 cycles of thermal denaturation: 1 minute at 94° C.; annealing: 1 minute and elongation reaction: 1 minute at 72° C.
# Human iPS cells (201B7, RIKEN cell bank) were seeded onto a matrigel-coated 6-well plate, and cultured in a feeder-less medium, ReproFF (trade name, Reprocell Inc.) for culture of stem cells maintained in an undifferentiated state, without using a feeder cell, under conventional conditions: 37° C. and 5% carbon dioxide.
# A medium obtained by adding a 20% knock-out serum replacement (Life Technologies Japan Ltd.), 10% Minimum Essential Amino Acids (Life Technologies Japan Ltd.), 2 mM of L-glutamine (Life Technologies Japan Ltd.) and 1 mM of 2-mercaptoethanol to a D-MEM/F12 medium (Dulbecco's Modified Eagle Medium-F12 medium, Sigma-Aldrich Japan) was used as an iPSm(−) medium.
# The following growth-promoting agents were added to the iPSm(−) medium, and SOX-17, GATA6, FOXA2, GATA4, HEX, TTR and C/EBPα were expressed in a manner similar to that in Experiment 1.
# As the growth-promoting agents, added were bFGF (basic fibroblast growth factor, Wako Pure Chemical Industries, Ltd.), BMP (bone morphogenetic protein)-4 (Wako Pure Chemical Industries, Ltd.), oncostatinM (Wako Pure Chemical Industries, Ltd.), an epidermal growth factor (EGF, Wako Pure Chemical Industries, Ltd.), a nerve growth factor (NGF, R & D Systems, Inc.), TGF-β, (transform growth factor-β, R& D Systems, Inc.), retinoic acid (Sigma-Aldrich Japan) and a hepatic cell growth factor (HGF, Sigma-Aldrich Japan).
# RT-PCR to SOX-17, GATA6 and TTR was performed under the following conditions.
Compound,α-fetoprotein/RPL19 ratio (mRNA expression) (Human iPS cells (201B7) [1]),DLK-1/RPL19 ratio (mRNA expression) (Human iPS cells (201B7) [1]),expression of C/EBPα (Human iPS cells (201B7) [2]),expression of FOXA2 (Human iPS cells (201B7) [2]),expression of GATA4 (Human iPS cells (201B7) [2]),expression of GATA6 (Human iPS cells (201B7) [2]),expression of HEX (Human iPS cells (201B7) [2])
C[C@@H]1C[C@H]2[C@@H]3CCC4=CC(=O)C=C[C@]4(C)[C@@]3(F)[C@@H](O)C[C@]2(C)[C@@]1(O)C(=O)CO [dexamethasone],50.1±5,208±54,,,,,
CC1=C(/C=C/C(C)=C/C=C/C(C)=C/C(=O)O)C(C)(C)CCC1 [retinoic acid],133±58,79±40,,,,,
"TGF-β: transform growth factor-β, R&D Systems",,,not observed to be expressed,not observed to be expressed,not observed to be expressed,observed to be expressed,not observed to be expressed
